Reference: patent US20210000814A1, “RIMEGEPANT FOR CGRP RELATED DISORDERS” (Biohaven Pharmaceutical Holding Company Ltd., priority 2018, published 2021)

System: subjects with Acute Migraines
Experiment: BHV3000-303 Phase 3 trial, rimegepant ODT, acute treatment of migraine: efficacy
Assay type: in vivo, human
Settings: Study 303; single dose
Experimental: Clinical Trial—BHV3000-303: Phase 3: Double-Blind, Randomized, Placebo-Controlled, Safety and Efficacy Trial of BHV-3000 (Rimegepant) Orally Discintegrating Tablet (ODT) for the Acute Treatment of Migraine (ClinicalTrials.gov Identifier: NCT03461757) • A phase 3 clinical study was conducted with 1812 participants, as follows. The purpose of this study is to compare the efficacy of BHV-3000 (rimegepant ODT) versus placebo in subjects with Acute Migraines. […] Pain freedom of rimegepant compared with placebo in the acute treatment of migraine will be measured using the number of evaluable subjects that report no pain at 2 hours post-dose. [Time Frame: Two hours post dose] will be measured on a 4 point Likert scale (0=none, 1=mild, 2=moderate, 3=severe) 2. Freedom from the most bothersome symptom (MBS) of rimegepant compared with placebo will be measured using the number of evaluable subjects that report the absence of their MBS at 2 hours post-dose. […] The MBS (nausea, phonophobia or photophobia) will measured using a binary scale (0=absent, 1=present). […] To measure rimegepant compared to placebo on the probability of requiring rescue medication will be assessed using the number of subjects that take rescue medication within […] administration of study medication (BHV3000 or placebo). […]

N[C@@H]1c2cccnc2[C@H](OC(=O)N2CCC(n3c(=O)[nH]c4ncccc43)CC2)CC[C@H]1c1cccc(F)c1F [Rimegepant, [(55,65,9R)-5-amino-6-(2,3-difluorophenyl)-6,7,8,9-tetrahydro-5H-cyclohepta[b]pyridin-9-yl]4-(2-oxo-3H-imidazo[4,5-b]pyridin-1-yl)piperidine-1-carboxylate]
clinical benefit through 48 hours on pain relief, pain freedom, MBS, functional disability versus placebo: Lasting clinical benefit
